Data set [1] relates to human GADD45α gene promoter and regulatory element linked to Gaussia luciferase (GD532-GLuc) in TK6 cells. The data set can be described thus: GLuc genotoxicity assay: GLuc-T01 cells (TK6 with pEP-GD532-GLuc), 48 hour endpoint, without S9. The procedure:
The assay has the following steps, as further described below: (1) preparing a microplate for use in an assay; (2) conducting the assay in the microplates; (3) collecting and analysing the data; and (4) making a judgment on genome damage and the consequences.
The assay is performed using a microplate reader capable of luminescence and absorbance readings, equipped with injectors capable of single well additions.
Using the standard dilution protocol described here, all concentrations are halved in the microplate well when a sample volume of 75 μl is combined with 75 μl of cell culture. All standard and test chemicals and reagents should be prepared fresh shortly before the assay is performed.
An initial concentration of 2 mM or 1 mg/ml (whichever is lowest) is recommended (equating to 1 mM or 500 μg/ml of test compound on the microplate). It is desirable that the test compound is fully soluble at the top concentration tested. A minimum of 250 μl of each test compound is required per plate. […] If the compound precipitates from solution when the DMSO standard is added to water, the original DMSO stock standard can be diluted further with 100% DMSO. The 20 μl+980 μl water dilution step is then repeated to produce a fresh test standard.
Standard cell culture methods are used to prepare GLuc-TO1 cells for use in the assay. […] Cells are grown in routine culture medium:
The following standard protocol may be followed. […] To achieve this, 150 microlitres of the test chemical solution are put into a microplate well. […] This produces 9 serial dilutions of 75 microlitres each.
75 μl of GLuc-T01 cells in Assay Medium (GS-HC-AM) as described above are then added to each well as appropriate.
The following controls are included in the microplate: • a. Blank well. • b. Test compound/sample alone. • c. Assay medium alone. • d. Control compound with cells.
Once finished, the microplates are covered with a breathable membrane. […] Plates should be incubated and analysed after 48 hours +/−2 hours.
Plates are first read for absorbance in each well, at a wavelength of ˜620 nm. […] An example of a suitable reader and injector system is a Tecan Infinite F500
Following the 48 hour incubation, luminescence and absorbance data are collected from the microplates. A microplate reader combining luminescence and absorbance functionality is used; by way of example, this reader may be a Tecan Infinite F500 (Tecan UK Ltd.). Luminescence data are collected with an integration time of 3 seconds after injection of the substrate and shaking of the microplate (within the reader). Optical absorbance is measured through a 600 nm or 620 nm filter. These luminescence and absorbance data are transported into a Microsoft Excel spreadsheet, and converted to graphical data. […] Luminescence data are divided by absorbance data to give ‘brightness units’, the measure of average GLuc induction per cell. […] In this way, one can distinguish between a small number of highly luminescent cells and a large number of weakly luminescent cells. The decision (see below), on whether or not a compound is classified as being genotoxic is generated automatically within the software.
The cytotoxicity threshold is set at 80% of the cell density reached by the untreated control cells.
Anomalous brightness data is generated when the toxicity leads to a final cell density less than 30% that of the blank. Genotoxicity data is not calculated above this toxicity threshold.
A series of genotoxicity assays were performed using a TK6 cell line having the GD532-GLuc expression cassette (a “GLuc assay”). The assays were performed using the experimental protocol provided in a later example.

Data set [2] concerns GADD45α-FLuc expression cassette (GD532-L) in TK6 cells. As to the kind of experiment: FLuc genotoxicity assay: TK6 cells with GADD45α-FLuc (GD532-L) expression cassette. The note with it: for detection as genotoxic with FLuc at the 48 hour endpoint: FLuc measured 8-48 hours after treatment, FIG. 4. An excerpt: The reagents for the FLuc assay were originally taken from the article Wettey F R, Jackson A P. Luciferase Reporter Assay. In: Reviews and Protocols in DT40 Research. […] The reagents and their concentrations are listed below. The pH of both mixes is adjusted to pH 7.8 in order to maximise the light output from luciferase.
It was decided to directly lyse the TK6 cells in the GreenScreen HC assay medium as to pellet and wash the cells would add additional steps to the protocol and therefore increase variability into the data. […] The solution of this combined lysis and assay mix (L&A buffer) is shown below.
The final concentration listed above is the concentration of the reagents after the L&A buffer has been combined with the GreenScreen HC assay media. The final concentration of the reagents is fixed and based on the information from the Wettey and Jackson protocol. The FLuc assay as it is currently performed relies on the addition of 40 μl of L&A buffer to 120 μl of GreenScreen HC assay buffer. Therefore, the initial concentration of the reagents in the L&A buffer has to be four times greater than the desired final concentration. The L&A buffer should be pH 8.0 as when the L&A buffer is combined with the GreenScreen HC assay medium (pH 7.2) this give a final pH of ˜7.8.
The preparation of pEP-GD532-GLuc is described in the accompanying examples. Using a similar strategy the inventors also prepared plasmid pEP-GD532-L, in which FLuc is used as the reporter protein. TK6 cells are transfected with a plasmid having a GD532-L or GD532-GLuc expression cassette by electroporation and clones bearing the reporter plasmids are selected.
The inventors wished to determine which of the GLuc and FLuc reporter proteins were most suitable for use in a genotoxicity assay. To determine this, they performed a series of experiments in which cells having the GD532-L or GD532-GLuc expression cassette were exposed to a test compound, and the activity of GLuc and FLuc measured and compared to the standard GADD45α-GFP expression cassette.
FLuc cells were combined with a several known genotoxins and non-genotoxins. FLuc expression was measured at 8, 16, 24, 32, 40 and 48 hours after treatment.

Data set [3] relates to GD532-GLuc reporter in GLuc-T01 cells with S9 liver extract. The data set can be described thus: S9 metabolic activation GLuc assay with thiazole orange cell number estimation. As to conditions: TO cell number estimation, threshold 1.5, FIG. 7B.
Procedure: In an S9-incorporating assay, GLuc-T01 cells are exposed to the test compound in the presence of the S9 extract in a mixture with enzyme co-factors (for example, glucose-6-phosphate (2.5 mM) and β-nicotinamide adenine dinucleotide phosphate (0.5 mM)). The S9 extract is normally used at a final concentration of 1% (v/v) in the assay microplate. […] The conditions of an S9-incorporating assay (for example, time of exposure and type of S9—animal species, chemical induction of hepatic enzymes etc.) may be varied according to experimental requirements.
The cell stain used in the adapted protocol is thiazole orange (TO) which is a cyanine dye that binds to nucleic acids. The binding of TO to DNA and RNA greatly enhances its fluorescence intensity, allowing for its detection without the need to wash away background, unbound TO.
The method requires GLuc-T01 cells to be lysed to allow access to the DNA of all cells present in the microplate well.
In the microplate, the final concentration of TO is 15 μM and for Triton-X100 it is 1% (v/v).
Where the assay includes S9 liver extracts, the genotoxic threshold is set at a relative GLuc induction of 1.5 (i.e. an 50% increase).
The test system of data set [4] is GADD45α-GFP expression cassette in TK6 cells. As to the kind of experiment: GADD45α-GFP reporter assay (GreenScreen HC). Type of data set: cell-based, human. The note with it: FIG. 3, 24 hour timeframe. The procedure:
Studying FIG. 3 allows for the construction of a number of hypotheses regarding the stability of the reporter proteins and how this will affect the GreenScreen HC assay. The FLuc protein has been reported to have a half-life within cells of ˜3 hours. In comparison, GFP has been reported to have a half-life within cells of ˜26 hours. In this respect GFP can be considered to give more of a cumulative measure of GADD45α induction whilst FLuc will report only on recent GADD45 induction.
Background: In a reporter assay the amount or activity of a reporter protein is the signal.

Setting [5] is: TK6 with GD532-GLuc, 48 hour endpoint.
[6] abbreviates: lowest test compound concentration that produces a relative GLuc induction greater than the 1.8 threshold.

Like-named read-outs stand apart in the source and are kept apart here.

Here are results for 17 molecules from patent US20120035079A1, “GENOTOXICITY TESTING” (priority 2009, published 2012).

Consider `Nc1ncn([C@@H]2O[C@H](CO)[C@@H](O)[C@H]2O)c(=O)n1` [5-Azacytidine], for which, in data set [1], the “GLuc Genotox Result” value is recorded as “+++”. The “GLuc Genotox LEC” value in data set [1] (human, 48 h) was found to be 0.38 µg/mL.

For the molecule `O=c1[nH]cc(F)c(=O)[nH]1` [5-Fluorouracul], the “detection as genotoxic with FLuc at the 48 hour endpoint” value in data set [2] is “would not have been detected as genotoxic”. Besides, the “genotoxicity outcome in the GLuc assay (in words)” value (from here on “genotoxicity outcome”) in data set [1] (setting [5]) is “correctly identified”. In addition, the “GLuc Genotox LEC” value in data set [1] (setting [6]) was determined as 0.63 µg/mL.

On to `Nc1cc2c3ccccc3ccc2c2ccccc12` [6-Aminochrysene], for which the “detection of pro-genotoxin in S9 GLuc assay” value in data set [3] is reported as “detected”.

`C[C@@]1(CO)[C@H](O)CC[C@@]2(C)[C@H]1CC[C@H]1C[C@@H]3C[C@@]12CC[C@]3(O)CO` [Aphidicolin]: in data set [1] (setting [6]), the “GLuc Genotox LEC” value was 0.13 µg/mL.

As for `CCCCNC(=O)n1c(NC(=O)OC)nc2ccccc21` [Benomyl], in data set [1], the “GLuc Genotox Result” value is “+++”. Besides, the “GLuc Genotox LEC” value in data set [1] (human, 48 h) worked out at 1.81 µg/mL.

On to `CC[C@@]1(O)C(=O)OCc2c1cc1n(c2=O)Cc2cc3ccccc3nc2-1` [Camptothecin], for which the “GLuc Genotox LEC” value in data set [1] (setting [6]) is 0.08 µg/mL.

For the molecule `COc1cc2c(c(OC)c1OC)-c1ccc(OC)c(=O)cc1[C@@H](NC(C)=O)CC2` [Colchicine], the “detection as genotoxic with FLuc at the 48 hour endpoint” value in data set [2] is given as “would not have been detected as genotoxic”. Further, the “genotoxicity outcome” value in data set [1] (setting [5]) is reported as “correctly identified”.

On to `COc1cc([C@@H]2c3cc4c(cc3[C@@H](O[C@@H]3O[C@@H]5CO[C@@H](C)O[C@H]5[C@H](O)[C@H]3O)[C@H]3COC(=O)[C@H]23)OCO4)cc(OC)c1O` [Etoposide], for which, in data set [1], the “GLuc Genotox Result” value is “+++” and the “genotoxicity outcome” value is recorded as “positive”.

As to `COC1=CC(=O)C[C@@H](C)[C@]12Oc1c(Cl)c(OC)cc(OC)c1C2=O` [Griseofulvin], in data set [1], the “GLuc Genotox Result” value was “+++”.

In the case of `OO` [Hydrogen Peroxide], in data set [1], the “GLuc Genotox Result” value is recorded as “+++”. Also, the “GLuc Genotox LEC” value in data set [1] (human, 48 h) stood at 5.00 µg/mL.

For `NC(=O)NO` [Hydroxyurea], the “GLuc Genotox LEC” value in data set [1] (human, 48 h) amounted to 4.75 µg/mL.

For `COS(C)(=O)=O` [Methyl methanesulfonate], in data set [1], the “GLuc Genotox Result” value was “+++”. The “GLuc Genotox LEC” value in data set [1] (human, 48 h) stood at 6.25 µg/mL.

In the case of `CN(N=O)C(N)=O` [N-Nitroso-N-methylurea], the “concentration at which GADD45α induction (GFP signal) peaks” value in data set [4] is given as “at least 258 μg/ml”. In addition, in data set [2] (FLuc reporter, FIG. 3, 24 hour timeframe), the “test concentration at which the highest relative induction is seen” value amounted to 32 µg/mL. Besides, the “concentrations that cause significant cell death” value in data set [2] (TK6 reporter cells, FIG. 3, explains decrease in FLuc signal) is recorded as “greater than 32 μg/ml”. In data set [1] (setting [6]), the “GLuc Genotox LEC” value was determined as 8.05 µg/mL.

As to `CC(=O)O[C@H]1C(=O)[C@@]2(C)[C@H]([C@H](OC(=O)c3ccccc3)[C@]3(O)C[C@H](OC(=O)[C@H](O)[C@@H](NC(=O)c4ccccc4)c4ccccc4)C(C)=C1C3(C)C)[C@]1(OC(C)=O)CO[C@@H]1C[C@@H]2O` [Paclitaxel (Taxol), Paclitaxel], the “GLuc Genotox Result” value in data set [1] is “+++”. Further, the “GLuc Genotox LEC” value in data set [1] (human, 48 h) came to 0.03 µg/mL.

As for `CCc1nc(N)nc(N)c1-c1ccc(Cl)cc1` [Pyrimethamine], in data set [1], the “GLuc Genotox Result” value is reported as “+++”. Also, the “GLuc Genotox LEC” value in data set [1] (human, 48 h) stood at 0.39 µg/mL.

Regarding `CC[C@]1(O)C[C@H]2CN(CCc3c([nH]c4ccccc34)[C@@](C(=O)OC)(c3cc4c(cc3OC)N(C=O)[C@H]3[C@@](O)(C(=O)OC)[C@H](OC(C)=O)[C@]5(CC)C=CCN6CC[C@]43[C@@H]65)C2)C1` [Vincristine Sulphate], the “GLuc Genotox Result” value in data set [1] is recorded as “+++”. In data set [1] (human, 48 h), the “GLuc Genotox LEC” value was found to be 0.0008 µg/mL.

As for `OCCO` [ethylene glycol], the “genotoxicity outcome” value in data set [1] (setting [5]) is on record as “correctly identified”.
